Data on four molecules can be found in paper PMC11056381, “Characterization and evaluation of cytotoxic and antimicrobial activities of cyclotides from Viola japonica” (Scientific Reports, 2024).

≈ marks a conversion by molar mass, not a printed value. Counter-ions that a name gives are not always drawn. Like-named read-outs stand apart in the source and are kept apart here. Residues, ends and D or L forms follow the SMILES beside them.

Test [1] relates to Acinetobacter baumannii (ATCC19606). The experiment in a line: microbe, parasite or virus in culture. From the text:
(§1) Viba 11, originally discovered in Viola baoshanensis[39] and found in other plants such as Viola tricolor[40], Viola betonicifolia, and Viola philippica, lacks biological activity studies. […] All purified cyclotides underwent antibacterial testing against Gram-positive bacterium Staphylococcus aureus (CMCC(B)26003-2-10) and Bacillus subtilis (CMCC(B)63501), Gram-negative bacteria, including Acinetobacter baumannii (ATCC19606), Escherichia coli (CMCC(B)44102-2-6), and Salmonella paratyphi (CMCC(B)50094-2-9).
(§2) Bacterial fluids are cultured overnight at 37 °C. The next day, the bacterial liquids are diluted to a concentration of 10^6 CFU/ml. Prepare different concentrations of cyclotide drugs and kanamycin sulfate in advance, and sequentially add the drugs and bacterial liquid to the 96-well plate. Negative controls consisted of sterile water and bacterial liquid. The plate is cultured overnight at 37 °C and observe whether the solution remains clear to see the growth of the bacterial suspension. Each test was performed three times at least.

Test [2] deals with Bacillus subtilis (CMCC(B)63501). The experiment in a line: microbe, parasite or virus in culture.
Text: as §1, §2

Test [3] concerns Escherichia coli (CMCC(B)44102-2-6). The experiment in a line: microbe, parasite or virus in culture.
Text: as §1, §2

The test system of test [4] is Salmonella paratyphi (CMCC(B)50094-2-9). The experiment in a line: MIC, broth dilution in 96-well plate. The test is classed as cell-based. Particulars: 10^6 CFU/ml, overnight 37 °C, visual clarity, performed at least three times.
Text: (§3) Cycloviolacin O2, known for its antimicrobial, hemolytic, and insecticidal activities, has been more extensively investigated[4],[20],[36]–[38]. Viba 11, originally discovered in Viola baoshanensis[39] and found in other plants such as Viola tricolor[40], Viola betonicifolia, and Viola philippica, lacks biological activity studies. These two cyclotides and vija 10 are high in content and easy to purify, and cycloviolacin O2 can also be used as a positive control to conduct activity study. In addition, few vija12 and 31 were extracted for antibacterial experiments. All purified cyclotides underwent antibacterial testing against Gram-positive bacterium Staphylococcus aureus (CMCC(B)26003-2-10) and Bacillus subtilis (CMCC(B)63501), Gram-negative bacteria, including Acinetobacter baumannii (ATCC19606), Escherichia coli (CMCC(B)44102-2-6), and Salmonella paratyphi (CMCC(B)50094-2-9). […] In addition, the MICs of viba 11, cycloviolacin O2 and vija 10 against B. subtilis were respectively 5.4 μM, 2.1 μM and 14.3 μM (Table 1). […] Therefore, it is hypothesized that the lower antimicrobial activity of vija 10 may be attributed to the presence of only one Lys residue in loop 5.
as §2
(In broth dilution the organism is exposed to a series of concentrations in liquid medium.)

Test [5] relates to Staphylococcus aureus (CMCC(B)26003-2-10). The experiment in a line: MIC, broth dilution in 96-well plate. The test is classed as cell-based. Conditions: 10^6 CFU/ml, overnight 37 °C, visual clarity, performed at least three times.
Text: as §3, §2

A further test concerns Acinetobacter baumannii. The experiment in a line: Time killing kinetics. In kind it is cell-based. Conditions: about 10^6 CFU/mL, LB, 37 °C, colony count. The procedure: In this study, we investigated the time-kill kinetics characteristics of plant cyclotides against bacteria. […] It is worth noting that due to experimental constraints, there was a slight discrepancy of a few minutes between theoretical 0 h and actual 0 h. […] Furthermore, we also conducted time-kill kinetics studies using vija 10 against B. subtilis.
Figure 4 (A) The Acinetobacter baumannii time killing kinetics of cycloviolacin O2 at concentration of 1 MIC, 2 MIC, 4 MIC and 8 MIC at 37 °C. (B) The Bacillus subtilis time killing kinetics of vija 10 at concentration of 1 MIC, 2 MIC, 4 MIC at 37 °C. Each test was performed three times at least.
Incubate A. baumannii and B. subtilis in fresh nutrient LB broth at 37 °C until logarithmic growth stage, then dilute to approximately 10^6 CFU/mL, and incubate with cycloviolacin O2 at concentrations of 1 MIC, 2 MIC, 4 MIC, 8 MIC with A. baumannii and vija 10 at concentrations of 1 MIC, 2 MIC, 4 MIC with B. subtilis respectively. Taking the mixture at time points of 0 h, 0.5 h, 1 h, 1.5 h and 2 h, dilute and coat it to solid medium for 24 h. Count the number of colonies on solid culture medium. Each test was performed three times at least. Plotting a line graph with time on the x-axis and bacterial survival on the y-axis using GraphPad Prism 8. Statistical analysis of bacterial viability at different time points to determine the bactericidal and bacteriostatic effects of cyclotides.

Test [6] deals with 4T1 (mouse breast cancer cells). The experiment in a line: MTT cytotoxicity assay. In kind it is cell-based. Particulars: 4T1 cells, 48 h incubation, mean ± SD of at least three repeats. As to the method:
(§4) Five types of cells, namely A549 (human non-small cell lung cancer cells), T24 (human bladder cancer cells), 4T1 (mouse breast cancer cells), 7402 (human hepatocellular carcinoma cells), and THLE-3 (human hepatocytes cells), are selected for evaluating the cytotoxicity of viba 11, cycloviolacin O2, and vija 10 using the MTT (3-(4,5-dimethylthiazol-2-yl)-2,5-diphenyltetrazolium bromide) reagent.
(§5) To determine cell toxicity using MTT assay, cells are seeded in a 96-well plate and cultured for 24 h. After that, different concentrations of cyclotides are added to the cells and incubated for 48 h. MTT is then added to react with the cells, and after 4 h, the reaction is terminated by discarding the supernatant and adding dimethyl sulfoxide for resuspension. The absorbance at 570 nm is measured after 10 min of shaking at room temperature. Each test was performed three times at least. The data were analyzed using GraphPad Prism 8. During this process, the drug concentrations were transformed into logarithmic form with a base of 10 and plotted on the x-axis. Cell viability (%) = [A (cyclotides) − A (blank)]/[A (control) − A (blank)] × 100, which was represented on the y-axis. Using this method, we determined the IC50 value for each experiment, with each experiment repeated at least three times and the mean value calculated. The error was represented by the standard deviation of the IC50 obtained from three repetitions.
On the technique in general: Tetrazolium assays rely on reduction of a dye to a coloured formazan, in cell work by metabolically active cells.

In test [7] the test system is 7402 (human hepatocellular carcinoma cells). The experiment in a line: MTT cytotoxicity assay. The test is classed as cell-based. Conditions: 7402 cells, 48 h incubation, mean ± SD of at least three repeats. The procedure:
as §4, §5

For test [8], the system named is A549 (human non-small cell lung cancer cells). The experiment in a line: MTT cytotoxicity assay. The test is classed as cell-based. Conditions: 48 h incubation, mean ± SD of at least three repeats. The procedure: as §4, §5
The subject of test [9] is T24 (human bladder cancer cells). The experiment in a line: MTT cytotoxicity assay. The test is classed as cell-based. Conditions: 48 h incubation, mean ± SD of at least three repeats. The procedure: as §4, §5
Test [10] deals with THLE-3 (human hepatocytes cells). The experiment in a line: MTT cytotoxicity assay. The test is classed as cell-based. Conditions: THLE-3 cells, 48 h incubation, mean ± SD of at least three repeats. The procedure:
as §4, §5

Where [11] appears, read: Acinetobacter baumannii ATCC19606, 10^6 CFU/ml, 96-well plate, overnight 37 °C, visual clarity, performed at least three times.
[12] abbreviates: 10^6 CFU/ml, 96-well plate, overnight 37 °C, visual clarity, performed at least three times.

For orientation: IC50 means the midpoint of a concentration-inhibition curve. As to `CC[C@H](C)[C@@H]1NC(=O)[C@H](C)NC(=O)[C@H](CO)NC(=O)[C@H](CO)NC(=O)[C@H]([C@@H](C)CC)NC(=O)[C@@H]2CSSC[C@@H]3NC(=O)[C@H](C(C)C)NC(=O)[C@H](CCCCN)NC(=O)[C@H](CO)NC(=O)[C@H](CCCCN)NC(=O)[C@@H]4CSSC[C@H](NC(=O)[C@H](CO)NC(=O)[C@H](CCC(=O)O)NC(=O)CNC(=O)[C@H](CSSC[C@H](NC(=O)CNC1=O)C(=O)N[C@@H](CO)C(=O)N4)NC(=O)[C@@H]1CCCN1C(=O)[C@H]([C@@H](C)CC)NC(=O)CNC(=O)[C@H](CC(N)=O)NC(=O)[C@H](CCCNC(=N)N)NC(=O)[C@H](Cc1ccc(O)cc1)NC3=O)C(=O)N[C@@H](C(C)C)C(=O)N[C@@H](Cc1c[nH]c3ccccc13)C(=O)N[C@@H]([C@@H](C)CC)C(=O)N1CCC[C@H]1C(=O)N2` [cycloviolacin O2, reference compound] (HELM PEPTIDE1{A.I.G.C.S.C.K.S.K.V.C.Y.R.N.G.I.P.C.G.E.S.C.V.W.I.P.C.I.S.S}$PEPTIDE1,PEPTIDE1,4:R3-18:R3|PEPTIDE1,PEPTIDE1,6:R3-22:R3|PEPTIDE1,PEPTIDE1,11:R3-27:R3|PEPTIDE1,PEPTIDE1,1:R1-30:R2$$$V2.0), the MIC in test [1] (setting [11]) was 4.2 µM (≈ 13.2 µg/mL); in test [2] (setting [12]), 2.1 µM (≈ 6.6 µg/mL); in test [3] (setting [12]) it was > 16.8 µM; in test [4], > 16.8 µM; in [5], > 16.8 µM. The “time of treatment to complete eradication of A. baumannii” value came out at 2 h in the test with Acinetobacter baumannii (4 MIC) and 1.5 h with Acinetobacter baumannii (8 MIC). The IC50 is 162 ± 10 nM in [6]; 1332 ± 10 nM in test [7]; 149 ± 30 nM in [8]; 1690 ± 160 nM in test [9]; 1210 ± 50 nM in [10].
`CC(C)C[C@@H]1NC(=O)[C@@H]2CCCN2C(=O)[C@H](Cc2ccc(O)cc2)NC(=O)[C@H](CCCCN)NC(=O)[C@H](C)NC(=O)[C@@H]2CSSC[C@@H]3NC(=O)[C@H]([C@@H](C)O)NC(=O)[C@H](CCC(=O)O)NC(=O)CNC(=O)[C@@H]4CSSC[C@H](NC(=O)CNC(=O)[C@@H]5CCCN5C(=O)[C@H]([C@@H](C)O)NC(=O)[C@H](Cc5ccccc5)NC(=O)[C@H](CSSC[C@H](NC1=O)C(=O)N[C@@H](CO)C(=O)N[C@@H](CCCCN)C(=O)N[C@@H](CC(N)=O)C(=O)NCC(=O)N[C@@H](CO)C(=O)N[C@@H](C(C)C)C(=O)N[C@@H]([C@@H](C)O)C(=O)NCC(=O)N4)NC(=O)[C@H](CCCCN)NC(=O)[C@H](Cc1ccccc1)NC(=O)[C@H](CCCCN)NC(=O)[C@H](Cc1ccccc1)NC3=O)C(=O)N[C@@H](CCCCN)C(=O)N2` [vija 31] (HELM PEPTIDE1{A.K.Y.P.L.C.S.K.N.G.S.V.T.G.C.G.E.T.C.F.K.F.K.C.F.T.P.G.C.K.C}$PEPTIDE1,PEPTIDE1,6:R3-24:R3|PEPTIDE1,PEPTIDE1,15:R3-29:R3|PEPTIDE1,PEPTIDE1,19:R3-31:R3|PEPTIDE1,PEPTIDE1,1:R1-31:R2$$$V2.0) registered an MIC in [1] (setting [11]) of 14.9 µM (≈ 48.9 µg/mL).
In the case of `NC[C@H]1O[C@H](O[C@H]2[C@H](O)[C@@H](O[C@H]3O[C@H](CO)[C@@H](O)[C@H](N)[C@H]3O)[C@H](N)C[C@@H]2N)[C@H](O)[C@@H](O)[C@@H]1O` [Kanamycin sulfate, reference compound], the MIC in [1] (Acinetobacter baumannii, ATCC19606) came out at 8 µM; in test [2] it was 4 µM; in test [3], 8 µM.
In turn, `CC[C@H](C)[C@@H]1NC(=O)[C@H](Cc2ccc(O)cc2)NC(=O)[C@H](CO)NC(=O)CNC(=O)[C@H](CC(N)=O)NC(=O)[C@H](CCCCN)NC(=O)[C@H](CCCCN)NC(=O)[C@@H]2CSSC[C@@H]3NC(=O)[C@H](CCCCN)NC(=O)[C@H](CC(C)C)NC(=O)[C@H](CCCCN)NC(=O)[C@H](C(C)C)NC(=O)[C@@H]4CSSC[C@H](NC(=O)[C@H]([C@@H](C)O)NC(=O)[C@H](CSSC[C@H](NC(=O)[C@H](CO)NC1=O)C(=O)NCC(=O)N[C@@H](CCC(=O)O)C(=O)N[C@@H]([C@@H](C)O)C(=O)N4)NC(=O)CNC(=O)[C@@H]1CCCN1C(=O)[C@H]([C@@H](C)O)NC(=O)[C@H](Cc1ccc(O)cc1)NC3=O)C(=O)N[C@@H]([C@@H](C)O)C(=O)N[C@@H](Cc1c[nH]c3ccccc13)C(=O)N1CCC[C@H]1C(=O)N[C@@H](C)C(=O)N2` [vija 12] (HELM PEPTIDE1{A.C.K.K.N.G.S.Y.I.S.C.G.E.T.C.V.K.L.K.C.Y.T.P.G.C.T.C.T.W.P}$PEPTIDE1,PEPTIDE1,2:R3-20:R3|PEPTIDE1,PEPTIDE1,11:R3-25:R3|PEPTIDE1,PEPTIDE1,15:R3-27:R3|PEPTIDE1,PEPTIDE1,1:R1-30:R2$$$V2.0) showed an MIC in test [1] (setting [11]) of 14.9 µM (≈ 48 µg/mL).
